Where a SMILES comes first, the peptide text is derived from it.
Tests used:
[1] = system: Bacillus subtilis; details: Bacillus subtilis; 37° C., 20 h
Outline: (§1)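 Exponential-phase bacteria diluted in fresh medium, ca 10^5 CFU per well, with peptides in LB at final 0.1–100 μmol.l^−1 (twofold dilutions).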

[2] = system: Candida albicans Olomouc; details: Candida albicans Olomouc; YPD medium; 37° C., 20 h (Example 2)
[3] = system: Enterococcus faecalis Motol; details: BHI medium, 37° C., 20 h
[4] = system: Escherichia coli; details: 37° C., 20 h
Outline: as §1

[5] = system: Methicillin resistant Staphylococcus aureus (MRSA) 6271; details: 37° C., 20 h
Outline: as §1

[6] = system: Micrococcus luteus; details: Micrococcus luteus; 37° C., 20 h
Outline: as §1

[7] = system: Pseudomonas aeruginosa 5482; details: 37° C., 20 h
Outline: as §1

[8] = system: Pseudomonas aeruginosa Liberec; details: Pseudomonas aeruginosa Liberec; 37° C., 20 h
Outline: as §1

[9] = system: Staphylococcus aureus Liberec; details: Staphylococcus aureus Liberec clinical isolate; 37° C., 20 h
Outline: as §1

[10] = system: Staphylococcus aureus Motol; details: Staphylococcus aureus Motol clinical isolate; 37° C., 20 h
Outline: as §1

[11] = system: Staphylococcus epidermidis Motol; details: 37° C., 20 h
Outline: as §1

[12] = system: S. aureus (Liberec) biofilm; test: Bacterial biofilm, remaining metabolic activity (MTT); format: cell-based, Staphylococcus aureus; details: remaining metabolic activity of biofilm, 20 h
Outline: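 Biofilms of S. aureus or P. aeruginosa (Liberec) were grown 24 h at 37° C with shaking in BHI plus 1% glucose from ca. 10^8 CFU/ml inocula. After washing, biofilms were exposed 20 h to peptides at 1–128 μmol.l^−1. Surviving metabolic activity was measured by MTT (40 min, formazan in DMSO, A540) as percent of untreated biofilm, blank-corrected.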

CCCC[C@H](NC(=O)[C@H](CC(C)C)NC(=O)[C@H](CO)NC(=O)[C@H](CO)NC(=O)[C@H](CCCC)NC(=O)[C@@H](NC(=O)CN)[C@@H](C)CC)C(=O)N[C@@H](CCCCN)C(=O)N[C@@H](CCCCN)C(=O)N[C@@H](CC(C)C)C(=O)N[C@@H](CCCCN)C(=O)N[C@@H](CCCCN)C(=O)N[C@H](C(=O)N[C@H](C(=O)N[C@@H](C)C(=O)N[C@@H](CCCCN)C(N)=O)[C@@H](C)CC)[C@@H](C)CC [V] (HELM PEPTIDE1{G.I.[Nle].S.S.L.[Nle].K.K.L.K.K.I.I.A.K.[am]}$$$$V2.0)
Antimicrobial activity MIC B. s. [1]: 3.5 µM
Antimicrobial activity MIC C. a. Olomouc [2]: 10.0 µM
Antimicrobial activity MIC E. f. Motol [3]: 54.0 µM
Antimicrobial activity MIC E. c. [4]: 10.0 µM
Antimicrobial activity MIC S. a. 6271 [5]: 12.7 µM
Antimicrobial activity MIC M. l. [6]: 1.6 µM
Antimicrobial activity MIC P. a. 5482 [7]: 4.0 µM
Antimicrobial activity MIC P. a. Liberec [8]: 7.9 µM
Antimicrobial activity MIC S. a. Liberec [9]: 4.0 µM
Antimicrobial activity MIC S. a. Motol [10]: 6.7 µM
Antimicrobial activity MIC S. e. Motol [11]: 2.5 µM
Metabolic activity (%) S. aureus (Liberec) ([12]; peptide concentration 8 μmol · l^−1): 83.0%
Metabolic activity (%) S. aureus (Liberec) ([12]; peptide concentration 16 μmol · l^−1): 71.0%
Metabolic activity (%) S. aureus (Liberec) ([12]; peptide concentration 32 μmol · l^−1): 49.5%
Metabolic activity (%) S. aureus (Liberec) ([12]; peptide concentration 64 μmol · l^−1): 26.0%
Metabolic activity (%) S. aureus (Liberec) ([12]; peptide concentration 128 μmol · l^−1): 0.0%
